Test results published in patent publication US7166589B2, “Quinoline derivatives” (Hoffmann-La Roche Inc., priority 2001, dated 2007).

Target: T1, mouse NPY5-receptor (mNPY5) (Mus musculus, UniProt O70342)
T1 construct: The full-length cDNA encoding the mouse NPY5 (mNPY5) receptor was amplified from mouse brain cDNA; expressed in transfected cells
T1 sequence (O70342 1-466): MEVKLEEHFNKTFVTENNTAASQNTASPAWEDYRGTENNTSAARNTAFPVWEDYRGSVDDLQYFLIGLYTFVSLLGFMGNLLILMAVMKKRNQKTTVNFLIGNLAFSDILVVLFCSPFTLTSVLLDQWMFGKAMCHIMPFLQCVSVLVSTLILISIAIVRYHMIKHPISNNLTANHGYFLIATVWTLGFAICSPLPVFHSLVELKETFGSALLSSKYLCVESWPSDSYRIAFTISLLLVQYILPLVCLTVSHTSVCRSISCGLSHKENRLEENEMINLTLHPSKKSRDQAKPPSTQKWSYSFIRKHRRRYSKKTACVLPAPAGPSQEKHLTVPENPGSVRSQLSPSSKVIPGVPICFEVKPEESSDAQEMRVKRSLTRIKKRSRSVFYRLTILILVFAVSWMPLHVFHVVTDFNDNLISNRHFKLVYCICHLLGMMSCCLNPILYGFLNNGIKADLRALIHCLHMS
Assay: Radioligand competition binding, [125I]PYY, membranes of HEK293 cells expressing recombinant mouse NPY5 receptor
Details: 100 pM [125I]labelled peptide YY, 1 h at 22° C.
Description: The full-length cDNA encoding the mouse NPY5 (mNPY5) receptor was amplified from mouse brain cDNA using specific primers, designed based on the published sequence, and Pfu DNA-Polymerase (Stratagene). The amplification product was subcloned into the mammalian expression vector pcDNA3 using Eco RI and XhoI restriction sites. Positive clones were sequenced and one clone, encoding the published sequence was selected for generation of stable cell clones.
Human embryonic kidney 293 (HEK293) cells were transfected with 10 μg mNPY5 DNA using the lipofectamine reagent (Gibco BRL) according to the manufacturer's instruction. Two days after transfection, geneticin selection (1 mg/ml) was initiated and several stable clones were isolated. One clone was further used for pharmacological characterization.
Human embryonic kidney 293 cells (HEK293), expressing recombinant mouse NPY5-receptor (mNPY5) were broken by three freeze/thawing cycles in hypotonic Tris buffer (5 mM, pH 7.4, 1 mM MgCl2), homogenized and centrifuged at 72,000×g for 15 min. The pellet was washed twice with 75 mM Tris buffer, pH 7.4, containing 25 mM MgCl2 and 250 mM sucrose, 0.1 mM phenylmethylsulfonylfluoride and 0.1 mM 1,10-pheneanthrolin, resuspended in the same buffer and stored in aliquots at −80° C. Protein was determined according to the method of Lowry using bovine serum albumine (BSA) as a standard.

Row | IC50 [nM] | SMILES
1 | 22 | Cc1cc(N2CCCC2)c2ccc(COc3ccc(C#N)cc3)cc2n1 [Example 5, 4-(2-Methyl-4-pyrrolidin-1-yl-quinolin-7-ylmethoxy)-benzonitrile]
2 | 130 | Cc1cc(N2CCCC2)c2ccc(CNc3ccc(C#N)cc3)cc2n1 [Example 13, 4-[(2-Methyl-4-pyrrolidin-1-yl-quinolin-7-ylmethyl)-amino]-benzonitrile]
